From patent US7132542B2, “Compounds for the treatment of male erectile dysfunction” (Bristol-Myers Squibb Company, priority 2003, dated 2006)

What was measured:
[1] = system: cloned mammalian (mSlo or hSlo) BK channel; assay: Assay for BK channel openers: two-electrode voltage clamp of BK-mediated outward current in Xenopus oocytes; format: cell-based; settings: at 20 μM; percent increase over BK current in controls, voltage step to +140 mV; IBTX-sensitive current
Experimental: The ability of the compounds of the invention to open BK channels and increase whole-cell outward (K^+) BK-mediated currents was assessed under voltage-clamp conditions by determining their ability to increase cloned mammalian (mSlo or hSlo) BK-mediated outward current heterologously expressed in Xenopus oocytes [Butler, A., et al., Science 1993, 261, 221–224; Dworetzky, S. I., et al., Mol. Brain Res. 1994, 27, 189–193; Gribkoff, V. K., et al., Mol. Pharmacol. 1996, 50, 206–217]. The two BK constructs employed represent nearly structurally identical homologous proteins, and have proven to be pharmacologically indistinguishable in our tests. To isolate BK current from native (background, non-BK) current, the specific and potent BK channel-blocking toxin iberiotoxin (IBTX) [Galvez, A., et al., J. Biol. Chem. 1990, 265, 11083–11090] was employed at a supramaximal concentration, e.g., 50–100 nanomolar (“nM”). The relative contribution of BK channel-mediated current to total outward current was determined by subtraction of the current remaining in the presence of IBTX (non-BK current) from the current profiles obtained in all other experimental conditions (control, drug, and wash) [Gribkoff, V. K. et al., Mol. Pharmacol. 1996, 50, 206–217]. […] All compounds were tested in 5–10 oocytes and are reported at the indicated concentration of 20 micromolar (“μM”) (or as otherwise indicated); the effect of the selected compounds of the invention on BK current was expressed as the percent of control IBTX-sensitive current at a single transmembrane voltage (+140 mV) and is listed in Table 1. Recordings were accomplished using standard two-electrode voltage clamp techniques [Stuhmer, W., et al., Methods in Enzymology, 1992, 207, 319–339]; voltage-clamp protocols consisted of 500–750 milliseconds (“ms”) duration step depolarizations, from a holding potential of −60 mV, to a final voltage up to +140 mV in 20 mV steps. The experimental media (modified Barth's solution) consisted of millimolar (“mM”): NaCl (88), NaHCO3 (2.4), KCl (1.0), HEPES (10), MgSO4 (0.82), Ca(NO3)2 (0.33), CaCl2 (0.41); pH 7.5.

[2] = system: rabbit corpus cavernosum tissue; assay: Relaxation of rabbit corpus cavernosum strips precontracted with phenylephrine; settings: Oryctolagus cuniculus; inhibition of phenylephrine (3 μM)-induced force as compared to vehicle control; read-out: % Inhibition of force (RCC strips)
Experimental: The ability of the compounds of the invention to relax rabbit corpus cavernosum tissue as a model for the treatment of erectile dysfunction is described as follows. New Zealand white rabbits (3.4–3.7 kg) were euthanized by sodium pentobarbital (100 mg/kg) overdose. The penis from each animal was rapidly removed and immersed in a cold oxygenated modified Krebs Henseleit bicarbonate buffer. The penis' outer tunica was removed and the corpus cavernosum smooth muscle obtained and cut into strips approximately 3–5 mm long. The strips were suspended in tissue baths containing physiological salt solution (see above), and allowed to equilibrate for at least one hour under resting tension of 1.0 gram. Isometric force was measured as described above. Tissue strips were stimulated with the α-agonist phenylephrine (3 μM) and allowed to reach a steady level of force prior to the addition of test compounds. The results are expressed as the percentage inhibition of phenylephrine-induced force as compared to vehicle control.

[3] = system: rat small intestine tissue; assay: Relaxation of rat small intestine (ileum) segments; parameters: concentration or dose not given beside the values; settings: integral of nifedipine-sensitive force, 30 min post-compound addition
Excerpt: The ability of the compounds of the invention to relax rat small intestine tissue as a model for the treatment of irritable bowel syndrome is described as follows. Male rats (Harlan, Sprague Dawley, 250–350 g) were sacrificed by decapitation. A portion of small intestine (ileum) was removed and the attached connective tissues and intestinal contents removed. The ileum was cut into segments of ≦1 cm in length. The segments were mounted longitudinally between fixed hooks in organ baths containing warm (37° C.) physiological salt solution (composition in mM: NaCl 118.4, KCl 4.7, KH2PO4 1.2, MgSO4 1.2, CaCl2 1.8, Glucose 10.1, NaHCO3 25; gassed with 95% O2/5% CO2, pH 7.4). A stable tension of ˜1.5 g was maintained in the tissue segments during the equilibration period of 45 minutes. Changes in muscle tension were measured with isometric force transducers (Grass, FT-03C) and recorded using AcqKnowledge data acquisition system (AcqKnowledge for MP100WS, Biopac Systems Inc., Goleta, Calif.). Compound or vehicle was added in the baths for 30 minutes. “Zero” active force was established at the end of the experiment using nifedipine (20 μM). The effects of compounds or vehicle on force was determined by measuring the integral of nifedipine-sensitive force (including resting tone and spontaneous contractions) pre- and 30 min post-compound (or vehicle) addition. Results are expressed as the percentage inhibition of force. DMSO vehicle inhibited force (integral) by −0.6±3.0% (n=25).

CN(C)CCN(C)CC(=O)Nc1ccc(Sc2c(-c3cc(Cl)ccc3O)c3cc(C(F)(F)F)ccc3[nH]c2=O)cc1 [Example 7, N-[4-[[4-(5-chloro-2-hydroxyphenyl)-1,2-dihydro-2-oxo-6-(trifluoromethyl)-3-quinolinyl]thio]phenyl]-2-[[2-(dimethylamino)ethyl]methylamino]acetamide]
% MaxiK opening [1]: 231%
inhibition [2]: 16%
% Inhibition of force (RSI strips) [3]: 41%
